Measured values as given in patent US20220175682A1, “Siremadlin Succinate” (Novartis AG, priority 2019, published 2022).

Key:
Assay type in all cases: physicochemical
[1] = FT4 powder rheometer powder characterization (8-parameter model); set-up: MPS-15: unit not given here; conditions: for sBFE (Specific Basic Flow Energy): FT4, Group 1, 25 mm_1C_Split_Rep+VFR_R01; for sBFE (Specific Basic Flow Energy) / SI (Stability Index) / MPS-15 (major Principal Stress @ 15 kPa) / FF-15 (Flow function @ 15 kPa) / CBD-15 (Consolidated Bulk Density @ 15 kPa) / CPS (Compressibility) / WFA (Wall Friction Angle): reference powders; for SI (Stability Index) / SI / sBFE: FT4, Group 1; for SI (Stability Index) / FF-15 (Flow function @ 15 kPa): dimensionless; for MPS-15 (major Principal Stress @ 15 kPa): FT4, Group 2, 25 mm_Shear_15 kPa; for FF-15 (Flow function @ 15 kPa) / CBD-15 (Consolidated Bulk Density @ 15 kPa): FT4, Group 2, shear cell; for CPS (Compressibility): FT4, Group 3, 25 mm_Compressibility_1-15 kPa; for WFA (Wall Friction Angle): FT4, Group 4, 25 mm_Wall Friction_30 kPa; for SI / sBFE / CBD-15 / FF-15 / MPS-15 / CPS / WFA: HDM201-BBA batches; for CBD-15 / FF-15 / MPS-15: FT4, Group 2; for CPS: FT4, Group 3; for WFA: FT4, Group 4
Experimental: A standard FT4 powder rheometer offers at least 6 powder characterization methods (per measurement cylinder diameter). Those selected for analysis are
25 mm_1C_Split_Rep+VFR_R01;
25 mm_Compressibility_1-15 kPa;
25 mm_Wall Friction_30 kPa.
Each characterization method produces several kind of response parameters (default or manually selectable). A set of complete powder characterizations (at least 22 response parameters per row) were measured for more than 350 different powders and more than 60 different compounds using a standard FT4 powder rheometer and compiled in a database. The various parameters were correlated to the respective filling behavior in order to determine a set of parameters and parameter ranges which is capable of distinguishing and predicting filling behavior of powders.
sBFE: Specific Basic Flow Energy (mJ/g): obtained from BFE (obtained from standard FT4 test platform) divided by the split mass of the sample.
SI: Stability Index, standard variable, dimensionless.
SE: Specific Energy (mJ/g), standard variable
MPS @ 15 kPa: major Principal Stress, standard variable
FF @ 15 kPa: Flow function (dimensionless), from shear cell, standard variable
CBD @ 15 kPa: Consolidated Bulk Density (g/mL), standard variable (from shear cell)
CPS: Compressibility (%), standard variable
WFA: Wall Friction Angle (degree°), standard variable.

[2] = Particle size distribution by laser light diffraction (LLD); conditions: laser light diffraction, pin-milled HDM201-BBA batches
From the text: Values are given in micrometer, measurements done by laser light diffraction (LLD).

[3] = Crystal/particle shape, size and bulk density of reference API powders
From the text: NBU928 is a fumarate salt with a challenging crystallization process. The resulting particles typically have an elongated aspect ratio, crystals are lath shaped up to 400 μm long with strong agglomeration tendency. Such kind of crystal shape give a resulting powder bulk which is not directly processable in any capsule filler equipment. Therefore the API powder was subjected to a Particle Engineering treatment to selectively grow the shot side of the crystal then it was milled down through a pin mill equipment obtaining a quite regular fragmentation, leading to smaller particles with more steady aspect ratio, free of agglomeration, with an average diameter (X50) of about 25 μm.
CDZ173 is a mono-phosphate salt compound. It is characterized by needle shaped crystals with aspect ratio >10, agglomerated/fused rod-like crystals, very low bulk density (always <0.2 g/mL, very often <0.12 g/mL). It is here reported in two different variants (milled and un-milled).

CN(C)C(=O)c1cc2cnc(Nc3ccc(N4CCNCC4)cn3)nc2n1C1CCCC1 [1. LEE011, reference compound]
sBFE (Specific Basic Flow Energy) [1]: 38 mJ/g | SI (Stability Index) [1]: 0.9 | MPS-15 (major Principal Stress @ 15 kPa) [1]: 42 kPa | FF-15 (Flow function @ 15 kPa) [1]: 5.8 | CBD-15 (Consolidated Bulk Density @ 15 kPa) [1]: 0.6 g/mL | CPS (Compressibility) [1]: 26% | WFA (Wall Friction Angle) [1]: 40 °

OC[C@H]1O[C@@H](O[C@H]2[C@H](O)[C@@H](O)[C@@H](O)O[C@@H]2CO)[C@H](O)[C@@H](O)[C@H]1O [4. Lactose 125M, reference compound]
sBFE (Specific Basic Flow Energy) [1]: 16 mJ/g | CPS (Compressibility) [1]: 13% | WFA (Wall Friction Angle) [1]: 27 °

CC1(N)CCN(c2cccnc2NC(=O)c2nc(-c3ncccc3C(F)(F)F)cnc2N)CC1 [5. LXS196, reference compound]
sBFE (Specific Basic Flow Energy) [1]: 26 mJ/g | SI (Stability Index) [1]: 1.1 | MPS-15 (major Principal Stress @ 15 kPa) [1]: 27 kPa | FF-15 (Flow function @ 15 kPa) [1]: 15 | CBD-15 (Consolidated Bulk Density @ 15 kPa) [1]: 0.7 g/mL | CPS (Compressibility) [1]: 11% | WFA (Wall Friction Angle) [1]: 29 °

CCC(=O)N1CC[C@H](Nc2ncnc3c2CN(c2cnc(OC)c(C(F)(F)F)c2)CC3)C1 [6. CDZ173, reference compound]
sBFE (Specific Basic Flow Energy) [1]: 29 mJ/g | SI (Stability Index) [1]: 1.5 | MPS-15 (major Principal Stress @ 15 kPa) [1]: 50 kPa | FF-15 (Flow function @ 15 kPa) [1]: 1.4 | CBD-15 (Consolidated Bulk Density @ 15 kPa) [1]: 0.26 g/mL | CPS (Compressibility) [1]: 43% | WFA (Wall Friction Angle) [1]: 50 °

CCC(=O)N1CC[C@H](Nc2ncnc3c2CN(c2cnc(OC)c(C(F)(F)F)c2)CC3)C1 [7. CDZ173, reference compound]
sBFE (Specific Basic Flow Energy) [1]: 82 mJ/g | SI (Stability Index) [1]: 1.1 | MPS-15 (major Principal Stress @ 15 kPa) [1]: 9.6 kPa | FF-15 (Flow function @ 15 kPa) [1]: 5 | CBD-15 (Consolidated Bulk Density @ 15 kPa) [1]: 0.2 g/mL | CPS (Compressibility) [1]: 56% | WFA (Wall Friction Angle) [1]: 37 °

COc1ncc(-c2nc3c(n2C(C)C)[C@H](c2ccc(Cl)cc2)N(c2cc(Cl)cn(C)c2=O)C3=O)c(OC)n1.O=C(O)CCC(=O)O [Batch A1]
X10 ([2]; listed as A1): 1 micrometer | X50 ([2]; listed as A1): 5 micrometer | X90 ([2]; listed as A1): 14 micrometer | SI ([1]; listed as A1): 1.07 | sBFE ([1]; listed as A1): 6 mJ/g | CBD-15 ([1]; listed as A1): 0.53 g/mL | FF-15 ([1]; listed as A1): 2.5 | MPS-15 ([1]; listed as A1): 32 | CPS ([1]; listed as A1): 43% | WFA ([1]; listed as A1): 35 °

COc1ncc(-c2nc3c(n2C(C)C)[C@H](c2ccc(Cl)cc2)N(c2cc(Cl)cn(C)c2=O)C3=O)c(OC)n1.O=C(O)CCC(=O)O [Batch A2]
X10 ([2]; listed as A2): 4 micrometer | X50 ([2]; listed as A2): 28 micrometer | X90 ([2]; listed as A2): 60 micrometer | SI ([1]; listed as A2): 1.11 | sBFE ([1]; listed as A2): 9 mJ/g | CBD-15 ([1]; listed as A2): 0.68 g/mL | FF-15 ([1]; listed as A2): 5.5 | MPS-15 ([1]; listed as A2): 29 | CPS ([1]; listed as A2): 32% | WFA ([1]; listed as A2): 34 °

COc1ncc(-c2nc3c(n2C(C)C)[C@H](c2ccc(Cl)cc2)N(c2cc(Cl)cn(C)c2=O)C3=O)c(OC)n1.O=C(O)CCC(=O)O [Batch A3]
X10 ([2]; listed as A3): 9 micrometer | X50 ([2]; listed as A3): 45 micrometer | X90 ([2]; listed as A3): 95 micrometer | SI ([1]; listed as A3): 1.12 | sBFE ([1]; listed as A3): 20 mJ/g | CBD-15 ([1]; listed as A3): 0.69 g/mL | FF-15 ([1]; listed as A3): 9.4 | MPS-15 ([1]; listed as A3): 29 | CPS ([1]; listed as A3): 15% | WFA ([1]; listed as A3): 34 °

COc1ncc(-c2nc3c(n2C(C)C)[C@H](c2ccc(Cl)cc2)N(c2cc(Cl)cn(C)c2=O)C3=O)c(OC)n1.O=C(O)CCC(=O)O [Batch B1]
X10 ([2]; listed as B1): 3 micrometer | X50 ([2]; listed as B1): 16 micrometer | X90 ([2]; listed as B1): 50 micrometer | SI ([1]; listed as B1): 1.14 | sBFE ([1]; listed as B1): 6 mJ/g | CBD-15 ([1]; listed as B1): 0.64 g/mL | FF-15 ([1]; listed as B1): 3.8 | MPS-15 ([1]; listed as B1): 29 | CPS ([1]; listed as B1): 31% | WFA ([1]; listed as B1): 34 °

COc1ncc(-c2nc3c(n2C(C)C)[C@H](c2ccc(Cl)cc2)N(c2cc(Cl)cn(C)c2=O)C3=O)c(OC)n1.O=C(O)CCC(=O)O [Batch B2]
X10 ([2]; listed as B2): 4 micrometer | X50 ([2]; listed as B2): 21 micrometer | X90 ([2]; listed as B2): 71 micrometer | SI ([1]; listed as B2): 1.01 | sBFE ([1]; listed as B2): 8 mJ/g | CBD-15 ([1]; listed as B2): 0.65 g/mL | FF-15 ([1]; listed as B2): 3.8 | MPS-15 ([1]; listed as B2): 28 | CPS ([1]; listed as B2): 38% | WFA ([1]; listed as B2): 35 °

COc1ncc(-c2nc3c(n2C(C)C)[C@H](c2ccc(Cl)cc2)N(c2cc(Cl)cn(C)c2=O)C3=O)c(OC)n1.O=C(O)CCC(=O)O [Batch B3]
X10 ([2]; listed as B3): 5 micrometer | X50 ([2]; listed as B3): 26 micrometer | X90 ([2]; listed as B3): 87 micrometer | SI ([1]; listed as B3): 1.11 | sBFE ([1]; listed as B3): 9 mJ/g | CBD-15 ([1]; listed as B3): 0.70 g/mL | FF-15 ([1]; listed as B3): 5.3 | MPS-15 ([1]; listed as B3): 29 | CPS ([1]; listed as B3): 26% | WFA ([1]; listed as B3): 35 °

COc1ncc(-c2nc3c(n2C(C)C)[C@H](c2ccc(Cl)cc2)N(c2cc(Cl)cn(C)c2=O)C3=O)c(OC)n1.O=C(O)CCC(=O)O [Batch C1]
X10 ([2]; listed as C1): 21 micrometer | X50 ([2]; listed as C1): 69 micrometer | X90 ([2]; listed as C1): 163 micrometer | SI ([1]; listed as C1): 1.15 | sBFE ([1]; listed as C1): 33 mJ/g | CBD-15 ([1]; listed as C1): 0.68 g/mL | FF-15 ([1]; listed as C1): 9.0 | MPS-15 ([1]; listed as C1): 31 | CPS ([1]; listed as C1): 14% | WFA ([1]; listed as C1): 34 °

COc1ncc(-c2nc3c(n2C(C)C)[C@H](c2ccc(Cl)cc2)N(c2cc(Cl)cn(C)c2=O)C3=O)c(OC)n1.O=C(O)CCC(=O)O [Batch C2]
X10 ([2]; listed as C2): 6 micrometer | X50 ([2]; listed as C2): 35 micrometer | X90 ([2]; listed as C2): 83 micrometer | SI ([1]; listed as C2): 1.01 | sBFE ([1]; listed as C2): 12 mJ/g | CBD-15 ([1]; listed as C2): 0.70 g/mL | FF-15 ([1]; listed as C2): 6.4 | MPS-15 ([1]; listed as C2): 29 | CPS ([1]; listed as C2): 25% | WFA ([1]; listed as C2): 35 °

COc1ncc(-c2nc3c(n2C(C)C)[C@H](c2ccc(Cl)cc2)N(c2cc(Cl)cn(C)c2=O)C3=O)c(OC)n1.O=C(O)CCC(=O)O [Batch C3]
X10 ([2]; listed as C3): 3 micrometer | X50 ([2]; listed as C3): 19 micrometer | X90 ([2]; listed as C3): 58 micrometer | SI ([1]; listed as C3): 1.03 | sBFE ([1]; listed as C3): 8 mJ/g | CBD-15 ([1]; listed as C3): 0.62 g/mL | FF-15 ([1]; listed as C3): 3.7 | MPS-15 ([1]; listed as C3): 29 | CPS ([1]; listed as C3): 36%

CCC(=O)N1CC[C@H](Nc2ncnc3c2CN(c2cnc(OC)c(C(F)(F)F)c2)CC3)C1.O=P(O)(O)O [CDZ173]
bulk density ([3]; always): < 0.2 g/mL | aspect ratio of crystals ([3]; needle shaped crystals): > 10 | bulk density ([3]; very often): < 0.12 g/mL
